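Interpolation was linear, between the two tested concentrations surrounding the appropriate level; five concentrations were tested over 48 hours in 96-well plates. GI50 = concentration required for 50% inhibition of growth. TGI denotes the concentration required for complete inhibition of growth.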
Experiments:
Experiment in all cases: NCI anticancer screen, dose series, 48 h
[1] = tested on: 786-0 renal
[2] = tested on: A498 renal
[3] = tested on: A549 NSCLC
[4] = tested on: ACHN renal
[5] = tested on: BT-549 breast
[6] = tested on: CAKI-1 renal
[7] = tested on: CCRF-CEM leukemia
[8] = tested on: COLO 205 colon
[9] = tested on: EKVX NSCLC
[10] = tested on: HCC-2998 colon
[11] = tested on: HCT-116 colon
[12] = tested on: HCT-15 colon
[13] = tested on: HL-60(TB) leukemia
[14] = tested on: HOP-62 NSCLC
[15] = tested on: HOP-92 NSCLC
[16] = tested on: HS 578T breast
[17] = tested on: HT29 colon
[18] = tested on: IGROV1 ovarian
[19] = tested on: K-562 leukemia
[20] = tested on: KM12 colon
[21] = tested on: LOX IMVI melanoma
[22] = tested on: M14 melanoma
[23] = tested on: MALME-3M melanoma
[24] = tested on: MCF7 breast
[25] = tested on: MDA-MB-231 breast
[26] = tested on: MDA-MB-435
[27] = tested on: MOLT-4 leukemia
[28] = tested on: NCI-H226 lung
[29] = tested on: NCI-H23 lung
[30] = tested on: NCI-H460 lung
[31] = tested on: NCI-H522 lung
[32] = tested on: NCI/ADR-RES ovarian
[33] = tested on: OVCAR-3 ovarian
[34] = tested on: OVCAR-4 ovarian
[35] = tested on: OVCAR-5 ovarian
[36] = tested on: OVCAR-8 ovarian
[37] = tested on: PC-3 prostate
[38] = tested on: RPMI-8226 leukemia
[39] = tested on: RXF 393 renal
[40] = tested on: SF-268 CNS
[41] = tested on: SF-295 CNS
[42] = tested on: SF-539 CNS
[43] = tested on: SK-MEL-2 melanoma
[44] = tested on: SK-MEL-28 melanoma
[45] = tested on: SK-MEL-5 melanoma
[46] = tested on: SK-OV-3 ovarian
[47] = tested on: SN12C renal
[48] = tested on: SNB-19 CNS
[49] = tested on: SNB-75 CNS
[50] = tested on: SR leukemia
[51] = tested on: SW-620 colon
[52] = tested on: TK-10 renal
[53] = tested on: U251 CNS
[54] = tested on: UACC-257 melanoma
[55] = tested on: UACC-62 melanoma
[56] = tested on: UO-31 renal

C=C1C(=O)O[C@H]2[C@H]1CC/C(COC(=O)c1cc3cc(Cl)ccc3[nH]1)=C\CC[C@@]1(C)O[C@@H]21
GI50 [1]: 1.51 µM
TGI [1]: 2.91 µM
GI50 [2]: 2.65 µM
TGI [2]: 9.17 µM
GI50 [3]: 1.69 µM
TGI [3]: 3.31 µM
GI50 [4]: 1.35 µM
TGI [4]: 2.75 µM
GI50 [5]: 1.31 µM
TGI [5]: 3.2 µM
GI50 [6]: 1.19 µM
TGI [6]: 2.42 µM
GI50 [7]: 0.394 µM
TGI [7]: 1.61 µM
GI50 [8]: 1.72 µM
TGI [8]: 3.7 µM
GI50 [9]: 1.4 µM
TGI [9]: 2.91 µM
GI50 [10]: 1.4 µM
TGI [10]: 2.85 µM
GI50 [11]: 0.707 µM
TGI [11]: 2.06 µM
GI50 [12]: 1 µM
TGI [12]: 2.43 µM
GI50 [13]: 0.44 µM
TGI [13]: 2.3 µM
GI50 [14]: 2.22 µM
TGI [14]: 5.88 µM
GI50 [15]: 1.25 µM
TGI [15]: 2.76 µM
GI50 [16]: 2.25 µM
TGI [16]: 6.48 µM
GI50 [17]: 1.33 µM
TGI [17]: 3.12 µM
GI50 [18]: 1.38 µM
TGI [18]: 2.91 µM
GI50 [19]: 1.14 µM
TGI [19]: 4.14 µM
GI50 [20]: 2.15 µM
TGI [20]: 6.92 µM
GI50 [21]: 0.813 µM
TGI [21]: 2.08 µM
GI50 [22]: 1.47 µM
TGI [22]: 3.4 µM
GI50 [23]: 1.63 µM
TGI [23]: 3.33 µM
GI50 [24]: 0.86 µM
TGI [24]: 2.32 µM
GI50 [25]: 1.32 µM
TGI [25]: 2.85 µM
GI50 [26]: 1.24 µM
TGI [26]: 2.51 µM
GI50 [27]: 0.557 µM
TGI [27]: 3.37 µM
GI50 [28]: 1.8 µM
TGI [28]: 3.72 µM
GI50 [29]: 1.63 µM
TGI [29]: 3.68 µM
GI50 [30]: 1.72 µM
TGI [30]: 3.53 µM
GI50 [31]: 1.59 µM
TGI [31]: 3.92 µM
GI50 [32]: 1.45 µM
TGI [32]: 3.78 µM
GI50 [33]: 1.25 µM
TGI [33]: 2.7 µM
GI50 [34]: 1.33 µM
TGI [34]: 2.72 µM
GI50 [35]: 1.53 µM
TGI [35]: 3.28 µM
GI50 [36]: 1.34 µM
TGI [36]: 3.32 µM
GI50 [37]: 2.42 µM
TGI [37]: 6.58 µM
GI50 [38]: 0.81 µM
TGI [38]: 3.28 µM
GI50 [39]: 1.38 µM
TGI [39]: 2.72 µM
GI50 [40]: 1.44 µM
TGI [40]: 2.86 µM
GI50 [41]: 3.18 µM
TGI [41]: 16.5 µM
GI50 [42]: 1.44 µM
TGI [42]: 2.92 µM
GI50 [43]: 1.73 µM
TGI [43]: 3.59 µM
GI50 [44]: 1.58 µM
TGI [44]: 3.1 µM
GI50 [45]: 1.91 µM
TGI [45]: 3.54 µM
GI50 [46]: 10.2 µM
TGI [46]: 21.8 µM
GI50 [47]: 1.7 µM
TGI [47]: 3.57 µM
GI50 [48]: 2.91 µM
TGI [48]: 10.1 µM
GI50 [49]: 0.576 µM
TGI [49]: 2.07 µM
GI50 [50]: 0.776 µM
TGI [50]: 3.61 µM
GI50 [51]: 1.4 µM
TGI [51]: 3.37 µM
GI50 [52]: 1.75 µM
TGI [52]: 3.12 µM
GI50 [53]: 1.75 µM
TGI [53]: 3.32 µM
GI50 [54]: 1.7 µM
TGI [54]: 3.2 µM
GI50 [55]: 1.67 µM
TGI [55]: 3.27 µM
GI50 [56]: 1.21 µM
TGI [56]: 2.56 µM
